# Columns and labels:
# [1] = superoxide dismutase activity: inhibition of pyrogallol auto-oxidation; type: biochemical; conditions: for Percent inhibition of the rate of pyrogallol auto-oxidation: compound 0.5 mM, pyrogallol 0.750 mM, TRIS saline buffer pH 7.4, first two minutes, average of three measures
# Procedure: The pyrogallol auto-oxidation was measured at 420 nm according to the procedure Marklund & Marklund as reported in Vamecq et al. (2003). The incubation medium comprised TRIS saline buffer at pH 7.4 (5 mM TRIS, 50 mM NaCl) with either the vehicle (DMSO) or one of the compounds (final concentration 0.5 mM ) dissolved in DMSO. The reaction was triggered by the addition of pyrogallol (0.750 mM).
# The results are given as percent inhibition of the rate of pyrogallol auto-oxidation measured during the first two minutes.
# audiogenic seizure = audiogenic seizure test in magnesium deficient animals; type: in vivo
# Procedure: (§1) The tests were performed in rodents as described in J. Vamecq et al. Eur. J. Neurosc. 2003, 18, 1110. The results are shown in Table 1, wherein ScPtz refers to subcutaneous pentylenetetrazol, MES refers to Maximal Electroshock Seizures, MCS refers to Maximal Clonic Seizures, and ND means "not determined". The results are given as ED50 in mg/kg.
# chemical seizure (scPtz) = assay: subcutaneous pentylenetetrazol (scPtz) induced chemical seizure test; type: in vivo; conditions: Mus musculus, ip
# Procedure: as §1
# [2] = glutathione peroxidase activity: stimulation of peroxide-induced oxidation of reduced glutathione; type: biochemical; conditions: for Effects of the compounds on the oxidation rate (%): average glutathione oxidation rate, vehicle control = 100 %, 2 mM reduced glutathione, 10 µl 50 mM compound in 1 mL, pH 7.4; for Glutathione peroxidase activity: 2 mM reduced Glutathione
# Procedure: The activity of glutathione peroxidase compounds refers to the stimulation by the compounds of the peroxide-induced oxidation of reduced glutathione (H2O2, t-butyl-hydroperoxide or cumene hydroperoxide). […] The formation of oxidized glutathione results in the oxidation of NADPH in the presence of glutathione reductase. The NADPH oxidation is then measured and reflects the formation of oxidized glutathione. In view of the absorbance of the compounds, NADPH oxidation was measured by the fluorescent emission at 466 nm when excited at 366 nm, which a corrected quenching.
# The glutathione oxidation was measured in the presence of NADPH and glutathione reductase in 1 ml cell by fluorimetry (λexcitation = 366 nm and λemission= 466 nm). The cell contained 1 mL of 10 mM phosphate buffer pH 7.4, 0.25 mM NADPH, 10 µl DMSO (or 10 µl 50 mM compound dissolved in DMSO), 2 mM reduced glutathione and two units of glutathione reductase (Saccharomyces cerevisiae). The reaction was triggered by the addition of peroxide (5 mM t-butyl-hydroperoxide). A stimulation of the rate of peroxide-induced oxidation of glutathione was considered as glutathione peroxidase activity.
# [3] = tested on: electrical seizure MCS (6 Hz); assay: Maximal Clonic Seizures (MCS) 6 Hz electroshock test; type: in vivo
# Procedure: as §1
# [4] = tested on: electrical seizure MES (50 Hz); assay: Maximal Electroshock Seizures (MES) test; type: in vivo; conditions: Mus musculus, ip
# Procedure: as §1
SMILES,Percent inhibition of the rate of pyrogallol auto-oxidation [1] [%],scavenging activity toward the superoxide anion ([1]; result in words),audiogenic seizure (mouse ip) ED50 (audiogenic seizure),ED50 (chemical seizure (scPtz)) [mg/kg],Effects of the compounds on the oxidation rate (%) ([2]; 5 mM t-butyl-hydroperoxide),ED50 (audiogenic seizure; mouse ip) [mg/kg],electrical seizure MCS (6 Hz) (mouse ip) ED50 [3],"ED50 ([3]; Mus musculus, ip) [mg/kg]",ED50 [4] [mg/kg],Glutathione peroxidase activity ([2]; 2.5 mM cumene hydroperoxide) [%],Glutathione peroxidase activity ([2]; 2.5 mM hydrogen peroxide) [%],Glutathione peroxidase activity ([2]; 5 mM hydrogen peroxide) [%],Glutathione peroxidase activity ([2]; 5 mM t-butyl-hydroperoxide) [%]
"N=C(N)c1ccc(N)cc1 [4-aminobenzaminidine, 4-aminobenzamidine, reference compound]",< 5,does not have any scavenging activity,–,–,–,–,–,–,–,–,–,–,–
"CCN(CCNc1ccc(C(=N)N)cc1)c1ccc(C(=N)N)cc1 [Compound 5, 4,4'-(N-ethyl-1,2-ethanediyldiimino)bis(benzenecarboximidamide)]",28.8,–,little activity at non toxic doses,> 30,105,–,–,–,–,–,–,–,–
"N=C(N)c1ccc(NCCNc2ccc(C(=N)N)cc2)cc1 [Compound 2, 4,4'-(1,2-ethanediyldiimino)bisbenzenecarboximidamide]",36.3,–,active,> 300,< 100,6.9,ED50 = 48.95 mg/kg,60 to 100,–,–,–,–,–
"CN(CCNc1ccc(C(=N)N)cc1)c1ccc(C(=N)N)cc1 [Compound 4, 4,4'-(N-methyl 1,2-ethanediyldiimino)bis(benzenecarboximidamide)]",17.5,–,little activity at non toxic doses,> 100,107,–,–,–,> 100,–,–,–,–
"CN(CCN(C)c1ccc(C(=N)N)cc1)c1ccc(C(=N)N)cc1 [Compound 3, 4,4'-[1,2-ethanediyl (N,N'-dimethyl bisnitrilo)]bis(benzenecarboximidamide)]",51.0,–,little activity at non toxic doses,> 300,197,–,–,–,–,128,117,108,197

# Reference: patent EP2116236A1, “Bisbenzamidine derivatives for use as antioxidant” (Université de Mons-Hainaut, priority 2008, dated 2009)
